pIC50: −log10 of the molar value.
Each molecule was assayed against SARS-CoV-2 3CL-protease (Severe acute respiratory syndrome coronavirus 2 (2019-nCoV) (SARS-CoV-2), UniProt P0DTD1) (assay: SARS-CoV-2 3C-like (3CL) protease fluorescence assay (FRET)). Details: not given.
Format: biochemical
For `CC(OC(C)(C)C)[C@H](NC(=O)OCc1ccccc1)C(=O)N1C[C@]2(C[C@H]1C#N)C(=O)Nc1ccccc12` (stereo partly shown) [Compound 6], the pIC50 was < 6.00.

Same assay, conditions: read-out: FRET IC50
With `CC(C)C[C@@H](C(=O)N1C[C@]2(C[C@H]1C#N)C(=O)Nc1ccccc12)N(C)C(=O)c1cc2c(F)c(F)c(F)cc2[nH]1` [Compound 83] the pIC50 was > 7.00.
With `CN(C(=O)c1cc2c(OC3CC3)cccc2[nH]1)[C@@H](CC1CCC1)C(=O)N1C[C@]2(C[C@H]1C#N)C(=O)Nc1ccccc12` [Compound 94] the pIC50 was > 7.00.
For `CN(C(=O)c1cc2c(F)cc(F)cc2[nH]1)[C@@H](Cc1ccccc1)C(=O)N1C[C@]2(C[C@H]1C#N)C(=O)Nc1ccccc12` [Compound 81], the pIC50 was > 7.00.
`COc1cccc2c1cc(C(=O)N(C)[C@@H](CC(C)C)C(=O)N1C[C@]3(C[C@H]1C#N)C(=O)Nc1ccccc13)n2C` [Compound 53] was tested, and the pIC50 was > 7.00.
In the case of `COc1cccc2[nH]c(C(=O)N[C@@H](CC3CCC3)C(=O)N3C[C@]4(C[C@H]3C#N)C(=O)Nc3ccccc34)cc12` [Compound 17], the pIC50 was > 7.00.
`CC(C)C[C@H](NC(=O)c1cc2c(F)cccc2[nH]1)C(=O)N1C[C@]2(C[C@H]1C=O)C(=O)Nc1ccccc12` [Compound 25] was tested, and the pIC50 was > 7.00.
For `CC(C)C[C@@H](C(=O)N1C[C@]2(C[C@H]1C#N)C(=O)Nc1ccccc12)N(C)C(=O)c1cc2c(F)cccc2[nH]1` [Compound 44], the pIC50 was > 7.00.
In the case of `COc1cccc2[nH]c(C(=O)N(C)[C@@H](CC3CC3)C(=O)N3C[C@]4(C[C@H]3C#N)C(=O)Nc3ccccc34)cc12` [Compound 114], the pIC50 was > 7.00.
For `CC(C)(C)OC[C@H](NC(=O)OCc1ccccc1)C(=O)N1C[C@]2(C[C@H]1C#N)C(=O)Nc1ccccc12` [Compound 10], the pIC50 was 6.00 to 7.00.
For `CC(C)C[C@@H](C(=O)N1C[C@]2(C[C@H]1C#N)C(=O)Nc1ccccc12)N(C)C(=O)c1cc2cc(F)ccc2[nH]1` [Compound 70], the pIC50 was > 7.00.
With `CC(C)C[C@@H](C(=O)N1C[C@]2(C[C@H]1C#N)C(=O)Nc1ccccc12)N(C)C(=O)c1cc2ccc(-c3ccccc3)cc2[nH]1` [Compound 55] the pIC50 was > 7.00.
`CN(C(=O)OCc1ccccc1)[C@@H](CC(C)(C)C)C(=O)N1C[C@]2(C[C@H]1C#N)C(=O)Nc1ccccc12` [Compound 40] was tested, and the pIC50 was > 7.00.
Molecule `COc1cccc2[nH]c(C(=O)N[C@@H](CC(C)C)C(=O)N3C[C@]4(C[C@H]3C#N)C(=O)N(C)c3ccccc34)cc12` [Compound 120] has a pIC50 of 6.00 to 7.00.
For `COc1cccc2[nH]c(C(=O)N[C@@H](CC3CC3)C(=O)N3C[C@]4(C[C@H]3C#N)C(=O)Nc3ccccc34)cc12` [Compound 19], the pIC50 was > 7.00.
`COc1cccc2[nH]c(C(=O)N[C@@H](CC(C)C)C(=O)N3C[C@]4(C[C@H]3C(=O)C(=O)NCc3ccccc3)C(=O)Nc3ccccc34)cc12` [Compound 32] was tested, and the pIC50 was > 7.00.
`CN(C(=O)c1cc2c(F)cc(F)c(F)c2[nH]1)[C@@H](CC1CCCC1)C(=O)N1C[C@]2(C[C@H]1C#N)C(=O)Nc1ccccc12` [Compound 109] was tested, and the pIC50 was > 7.00.
In the case of `CC(C)C[C@H](NC(=O)c1cc2c(F)cccc2[nH]1)C(=O)N1C[C@]2(C[C@H]1C#N)C(=O)Nc1c(F)cccc12` [Compound 28], the pIC50 was > 7.00.
In the case of `COc1cccc2[nH]c(C(=O)N(C)[C@@H](CC3CCCC3)C(=O)N3C[C@]4(C[C@H]3C#N)C(=O)Nc3ccccc34)cc12` [Compound 106], the pIC50 was > 7.00.
For `CC(C)C[C@@H](C(=O)N1C[C@]2(C[C@H]1C#N)C(=O)Nc1ccccc12)N(C)C(=O)c1[nH]c2ccccc2c1-c1ccccc1` [Compound 48], the pIC50 was 6.00 to 7.00.
With `CC(C)(C)C[C@H](NC(=O)c1cc2c(F)c(F)ccc2[nH]1)C(=O)N1C[C@]2(C[C@H]1C#N)C(=O)Nc1ccccc12` [Compound 20] the pIC50 was > 7.00.
For `CC(C)C[C@@H](C(=O)N1C[C@]2(C[C@H]1C#N)C(=O)Nc1ccccc12)N(C)C(=O)c1cc2c(Cl)cc(F)cc2[nH]1` [Compound 72], the pIC50 was > 7.00.
With `CCCN(C(=O)c1cc2c(F)cc(F)cc2[nH]1)[C@@H](CC(C)C)C(=O)N1C[C@]2(C[C@H]1C#N)C(=O)Nc1ccccc12` [Compound 99] the pIC50 was > 7.00.
With `CN(C(=O)c1cc2c(F)cc(F)cc2[nH]1)[C@@H](CC1CCC1)C(=O)N1C[C@]2(C[C@H]1C#N)C(=O)Nc1ccccc12` [Compound 91] the pIC50 was > 7.00.
`CC(C)(F)C[C@H](NC(=O)OCc1ccccc1)C(=O)N1C[C@]2(C[C@H]1C#N)C(=O)Nc1ccccc12` [Compound 7] was tested, and the pIC50 was > 7.00.
`CC(C)C[C@@H](C(=O)N1C[C@]2(C[C@H]1C(=O)C(=O)NC1CC1)C(=O)Nc1ccccc12)N(C)C(=O)c1cc2c(F)cccc2[nH]1` [Compound 36] was tested, and the pIC50 was 6.00 to 7.00.
For `COc1cccc2[nH]c(C(=O)N[C@@H](CC(C)(C)C)C(=O)N3C[C@]4(C[C@H]3C#N)C(=O)Nc3ccccc34)cc12` [Compound 15], the pIC50 was > 7.00.
In the case of `COc1cccc2[nH]c(C(=O)N[C@H](CC3CCCCC3)C(=O)N3C[C@]4(C[C@H]3C#N)C(=O)Nc3ccccc34)cc12` [Compound 14], the pIC50 was 6.00 to 7.00.
For `CN(C(=O)c1cc2c(F)cc(F)cc2[nH]1)[C@@H](CC(C)(C)C)C(=O)N1C[C@]2(C[C@H]1C#N)C(=O)Nc1ccccc12` [Compound 88], the pIC50 was > 7.00.
With `CC(C)C[C@H](NC(=O)OC(C)(C)c1cccc(Cl)c1)C(=O)N1C[C@]2(C[C@H]1C#N)C(=O)Nc1ccccc12` [Compound 9] the pIC50 was 6.00 to 7.00.
With `COc1ccc(Cl)c(C(=O)N(C)[C@@H](CC(C)C)C(=O)N2C[C@]3(C[C@H]2C#N)C(=O)Nc2ccccc23)c1` [Compound 58] the pIC50 was > 7.00.
With `COc1cccc2[nH]c(C(=O)N(C)[C@@H](CC3CCCCC3)C(=O)N3C[C@]4(C[C@H]3C#N)C(=O)Nc3ccccc34)cc12` [Compound 113] the pIC50 was > 7.00.
In the case of `COc1cccc2[nH]c(C(=O)N(C)[C@@H](CC(C)(C)C)C(=O)N3C[C@]4(C[C@H]3C#N)C(=O)Nc3ccccc34)cc12` [Compound 85], the pIC50 was > 7.00.
In the case of `COc1cccc2[nH]c(C(=O)N[C@H](CC(C)C)C(=O)N3C[C@]4(C[C@H]3C#N)C(=O)Nc3ccccc34)cc12` [Compound 12], the pIC50 was < 6.00.
In the case of `N#C[C@@H]1C[C@@]2(CN1C(=O)[C@H](CC1CCC1)NC(=O)OCc1ccccc1)C(=O)Nc1ccccc12` [Compound 2], the pIC50 was > 7.00.
For `N#C[C@@H]1C[C@@]2(CN1C(=O)[C@H](CC1CC1)NC(=O)OCc1ccccc1)C(=O)Nc1ccccc12` [Compound 4], the pIC50 was > 7.00.
With `CN(C(=O)c1cc2c(F)c(F)ccc2[nH]1)[C@@H](CC1CCCCC1)C(=O)N1C[C@]2(C[C@H]1C#N)C(=O)Nc1ccccc12` [Compound 112] the pIC50 was > 7.00.
`CC(C)(C)C[C@H](NC(=O)OCc1ccccc1)C(=O)N1C[C@]2(C[C@H]1C#N)C(=O)Nc1ccccc12` [Compound 5] was tested, and the pIC50 was > 7.00.
Work on `COc1cccc2[nH]c(C(=O)N[C@@H](CC(C)C)C(=O)N3C[C@]4(C[C@H]3C(=O)O)C(=O)Nc3ccccc34)cc12` [Compound 37] yielded a pIC50 of 6.00 to 7.00.
In the case of `CN(C(=O)c1cc2c(F)cccc2[nH]1)[C@@H](Cc1ccccc1)C(=O)N1C[C@]2(C[C@H]1C#N)C(=O)Nc1ccccc12` [Compound 80], the pIC50 was > 7.00.
For `CC(C)C[C@@H](C(=O)N1C[C@]2(C[C@H]1C#N)C(=O)Nc1ccccc12)N(C)C(=O)c1[nH]c2ccc(F)cc2c1Cl` [Compound 77], the pIC50 was 6.00 to 7.00.
With `CC(C)C[C@@H](C(=O)N1C[C@]2(C[C@H]1C#N)C(=O)Nc1ccccc12)N(C)C(=O)c1cc2c(F)cc(F)cc2[nH]1` [Compound 46] the pIC50 was > 7.00.
For `COc1cccc2[nH]c(C(=O)N[C@@H](CC(C)C)C(=O)N3C[C@]4(C[C@H]3C(=O)C(=O)NC3CC3)C(=O)Nc3ccccc34)cc12` [Compound 31], the pIC50 was 6.00 to 7.00.

— US11352363B1, “Spiropyrrolidine derived antiviral agents” (Enanta Pharmaceuticals, Inc., priority 2020, dated 2022)
